Measurements published in US6429204B1, “Method of inhibiting cancer growth” (University of Miami, priority 1997, dated 2002).
Read-outs that look alike come from different tables or passages of the source. Marks after values point to notes of the source that are not given here.

Assays:
[1] = tested on: MMP-2 (gelatinase A) expressed by COLO 205 cells; assay: MMP protein expression by Western blot of conditioned medium, COLO 205 cells; format: cell-based, human; conditions: 24 hr, serum-free medium
Method: Two human cancer-derived cell lines were obtained from the American Type Culture Collection (ATCC) in Rockville, Md. The cell lines included COLO 205, a human colon cancer-derived cell line that expresses MMP-2 or gelatinase A, and E-10, a human breast cancer-derived cell line that expresses MMP-9 or gelatinase B.
Cells of each cell line were cultured in 75 cm^2 T-flasks in RPMI-1640 (Gibco) with 10% heat-inactivated fetal bovine serum (FBS) containing 100 units/mL penicillin and 100 μg/mL streptomycin. The cells were fed every two days, and passaged every week. The cells were grown to 80-90% confluence, and then the FBS-containing medium was replaced with a serum-free medium (SFM). CMT-3 (CollaGenex Pharmaceuticals, Inc., Newtown, Pa.) was added in several concentrations to the cells in SFM. Conditioned medium was collected after 24 hr, centrifuged to remove cell debris, and then assayed for MMP protein expression by Western blot using a conventional technique, and scanning the blots with a laser densitometer.

[2] = tested on: in vitro activated gelatinases (MMPs) from MAT LyLu and TSU PR1 conditioned medium; assay: 3H-gelatin gelatinase activity assay on processed conditioned medium of prostate cancer cells; format: biochemical; conditions: for IC50: read-out: 50% inhibition dose (IC50), activated gelatinases
Method: The effects of CMT-3 and doxycycline on gelatinase activity or expression by prostate cancer cells were tested. First, we tested the capacity of CMT-3 and doxycycline to inhibit MMP secretion into culture medium. Gelatinase activity was measured using a method adapted from the method of Dean and Woessner (1985). Conditioned culture medium was collected from MAT LyLu and TSU PR1 cells treated with CMT-3 or doxycycline for two days. The serum-free culture medium comprised RPMI 1640 basal medium containing insulin (5 μg/mL), transferrin (5 μg/mL), selenious acid ([…]), and gentamicin (2 μg/mL). […] (Dean et al. 1987; Woessner 1991.) The dialyzed medium was assayed for gelatinase activity following activation of latent MMPs with 1 mM p-aminophenyl mercuric acetate (APMA) for 30 min at 37° C. The assay mix was 25 μg ^3H-gelatin (prepared from heat-denatured ^3H-acetylated acid-soluble collagen), 0.1 mL of processed culture-conditioned medium, 1 mM phenylmethyl sulfonyl fluoride (PMSF) in a total volume of 0.5 mL of an assay buffer (20 mM Tris-HCl, pH 7.4, 30 mM NaCl, 0.005% Brij35, 10 mM CaCl2, 2 μM ZnSO4, and 0.02% NaN3). In some cases, 1 mM CaCl2 (instead of 10 mM) was used. Blanks were obtained by adding 1 mM 1,10-phenanthroline. Doxycycline or CMT-3 were added to the assay mixture following activation of the latent MMPs and just before adding the substrate ^3H-gelatin.
MMP activity in the culture media was examined at 1 mM and 10 mM CaCl2, with no change in [Zn^2+] in the assay buffer. We employed 1 mM CaCl2, as this concentration is closer to physiological concentration, and 10 mM CaCl2, as it is reported to be the optimum concentration in in vitro assays (Woessner 1991). As is shown in Table 2, both CMT-3 and doxycycline inhibited in vitro activated gelatinases.

[3] = tested on: gelatinase A (MMP-2); assay: Gelatin zymography of conditioned media of TSU PR1 and MAT LyLu cells, MMP-2; format: cell-based; conditions: 48 hours, serum-free medium
Method: Next we examined whether CMT-3 and doxycycline differentially affect the production of two major classes of gelatinases: gelatinase A (MMP-2) and gelatinase B (MMP-9). Confluent cultures of TSU PR1 and MAT LyLu cells were incubated with various concentrations of doxycycline and CMT-3 for 48 hours in serum-free medium. The conditioned media were then analyzed for MMPs by zymography as described below.
Conditioned media were collected from the cultures that had been treated with doxycycline or CMT-3 for 2 days. Media were then incubated with SDS-gel electrophoresis sample buffer for 30 min at room temperature, and then analyzed by gel electrophoresis on SDS-polyacrylamide gel (8%) containing gelatin (1 mg/mL). Following electrophoresis, the gels were washed twice with 0.25% TRITON® X100 for 30 min each, and incubated for 18 hr at 37° C. in an MMP digestion buffer comprising 20 mM Tris-HCl, pH 7.4, containing 30 mM NaCl, 1 mM PMSF, 10 mM CaCl2, 2 μM ZnSO4, 0.005% Brij35, and 0.02 NaN3 (Lokeshwar 1993a). After incubation, the gels were briefly rinsed in distilled water and stained with 0.25% Coomassie brilliant blue R250 prepared in 40% isopropanol solution for 1 hr. Gels were destained with 7% acetic acid. the locations of MMPs in the gels were visible as clear areas on a blue background, indicative of digested gelatin.

[4] = tested on: COLO 205 Cells; assay: MTS cytotoxicity assay, COLO 205; conditions: two days
Method: A panel of chemically modified tetracycline compounds and doxycycline were tested for cytotoxicity against two carcinomas: COLO 205 (a human colon carcinoma-derived cell line) and the E-10 clone of MDA-MB-231 (a human breast carcinoma-derived cell line). Cytoxicity was measured using a conventional assay for viability with a tetrazolium salt (MTS). Cells were grown in media containing the CMTs at concentrations ranging from 5 μM to 100 μM for two days. The cells were then incubated with the MTS for several hours before removal of the supernatant medium for determination of formazan, which is generated only by the viable cells. Results are expressed as percent cytotoxicity, which is simply the percent decline in measured formazan concentration in the sampled medium.

- IC50 ([2]; 1 mM CaCl2): 500 nM
- IC50 ([2]; 10 mM CaCl2): ~1500 nM
SMILES: NC(=O)C1=C(O)CC2CC3Cc4cccc(O)c4C(=O)C3=C(O)C2(O)C1=O (stereo not shown) [CMT-3, 6-demethyl-6-deoxy-4-de(dimethylamino)tetracycline]
- Percent Inhibition of MMP Protein Expression ([1]; COLO 205, MMP-2, 10 μM): 13.3%
- Percent Inhibition of MMP Protein Expression ([1]; COLO 205, MMP-2, 20 μM): 66.9%
- Percent Inhibition (gelatinase activity) ([2]; 0.25 μM drug, 10 mM CaCl2): 31.5 ± 1.2%
- Percent Inhibition (gelatinase activity) ([2]; 0.50 μM drug, 1 mM CaCl2): 84.8 ± 10.1%
- Percent Inhibition (gelatinase activity) ([2]; 0.50 μM drug, 10 mM CaCl2): 37.8 ± 7.5^b %
- Percent Inhibition (gelatinase activity) ([2]; 1.0 μM drug, 1 mM CaCl2): 96.7 ± 4.6^a %
- Percent Inhibition (gelatinase activity) ([2]; 1.0 μM drug, 10 mM CaCl2): 45.1 ± 2.9%
- Percent Inhibition (gelatinase activity) ([2]; 2.0 μM drug, 10 mM CaCl2): 51.2 ± 2.6%
- Percent Inhibition (gelatinase activity) ([2]; 5.0 μM drug, 1 mM CaCl2): 97.2 ± 2.9%
- Percent Inhibition (gelatinase activity) ([2]; 5.0 μM drug, 10 mM CaCl2): 52.4 ± 3.5%
- Percent Inhibition (gelatinase activity) ([2]; 10 μM drug, 1 mM CaCl2): 100%
- Percent Inhibition (gelatinase activity) ([2]; 10 μM drug, 10 mM CaCl2): 69.9 ± 10.5%
- Percent Inhibition (gelatinase activity) ([2]; 20 μM drug, 10 mM CaCl2): 78.9 ± 11.4%
- Percent Inhibition (gelatinase activity) ([2]; 50 μM drug, 10 mM CaCl2): 94.2 ± 3.3%
- MMP-2 levels in conditioned media (zymography) [3]: decreased MMP-2 and MMP-9 levels at a lower concentration than did doxycycline
- percent cytotoxicity ([4]; 5 μM): 25.9%
- percent cytotoxicity ([4]; 10 μM): 38.9%
- percent cytotoxicity ([4]; 20 μM): 37%
- percent cytotoxicity ([4]; 50 μM): 86.7%
- percent cytotoxicity ([4]; 100 μM): 86.7%
